Measurements: article PMC8654043 (Chemical Science, 2021)

How the values were obtained:
caspase-9 = target: T1, caspase-9 (Homo sapiens, UniProt P55211); assay type: biochemical
T1 sequence (P55211 1-416): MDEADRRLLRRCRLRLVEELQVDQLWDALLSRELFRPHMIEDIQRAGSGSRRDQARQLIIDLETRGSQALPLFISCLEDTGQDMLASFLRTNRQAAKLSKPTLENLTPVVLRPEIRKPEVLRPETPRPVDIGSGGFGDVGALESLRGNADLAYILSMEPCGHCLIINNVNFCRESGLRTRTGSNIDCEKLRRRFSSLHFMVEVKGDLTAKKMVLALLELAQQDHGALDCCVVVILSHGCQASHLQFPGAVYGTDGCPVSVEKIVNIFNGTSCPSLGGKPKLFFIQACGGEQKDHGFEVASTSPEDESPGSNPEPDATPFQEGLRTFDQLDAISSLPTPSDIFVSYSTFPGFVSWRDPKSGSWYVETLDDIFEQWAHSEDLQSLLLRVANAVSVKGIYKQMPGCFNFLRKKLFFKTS

caspase-8 = caspase-8 (Homo sapiens, UniProt Q14790); assay type: biochemical
Chain of caspase-8 (Q14790 217-374): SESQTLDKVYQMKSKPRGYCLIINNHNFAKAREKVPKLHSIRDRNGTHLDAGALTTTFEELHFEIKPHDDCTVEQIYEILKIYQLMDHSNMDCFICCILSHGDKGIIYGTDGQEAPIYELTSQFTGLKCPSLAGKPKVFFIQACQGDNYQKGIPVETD
Chain of caspase-8 (Q14790 385-479): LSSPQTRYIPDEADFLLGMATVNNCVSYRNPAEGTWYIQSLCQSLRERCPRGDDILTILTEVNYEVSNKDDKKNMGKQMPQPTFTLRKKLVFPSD

IC50 (caspase-9): 310 nM
IC50 (caspase-8): 280 nM
SMILES: CC(C)[C@H](NC(=O)c1ccc2ccccc2n1)C(=O)N[C@@H](CC(=O)O)C(=O)COc1c(F)cccc1F [Q-VD-OPh]
